Key:
[1] = Crystal; for molar entropy: 101.33 kPa, Small sample (50 mg) DSC
[2] = Molar enthalpy of transition or fusion; conditions: Crystal; DSC

[Ca+2].[O]=[Mo](=[O])([O-])[O-] [calcium molybdate(VI)]
[1]
Conditions	Normal melting temperature [°C]	molar entropy [J/K/mol]
298.15 K	–	122
310 K	–	126.5
315 K	–	128.4
320 K	–	130.3
325 K	–	132.1
330 K	–	133.9
335 K	–	135.7
340 K	–	137.5
345 K	–	139.3
350 K	–	141
355 K	–	142.8
360 K	–	144.5
365 K	–	146.2
370 K	–	147.9
375 K	–	149.6
380 K	–	151.2
385 K	–	152.9
390 K	–	154.5
395 K	–	156.1
400 K	–	157.7
410 K	–	160.9
420 K	–	164
430 K	–	167.1
440 K	–	170.1
450 K	–	173.1
460 K	–	176
470 K	–	178.8
480 K	–	181.7
490 K	–	184.5
500 K	–	187.2
510 K	–	189.9
520 K	–	192.6
530 K	–	195.2
540 K	–	197.8
550 K	–	200.3
560 K	–	202.8
570 K	–	205.3
580 K	–	207.7
590 K	–	210.1
600 K	–	212.5
620 K	–	217.2
640 K	–	221.7
660 K	–	226.1
680 K	–	230.4
700 K	–	234.6
720 K	–	238.7
740 K	–	242.8
760 K	–	246.7
766 K	–	247.8
DTA	1477	–

Conditions	Molar enthalpy of transition or fusion [kcal/mol]
[2]	24.4

Source: the NIST ThermoML archive (doi:10.1016/j.tca.2018.01.023)
